In data set [1] the test system is Mycobacterium tuberculosis. The class given is functional. Particulars: H37Ra ATCC 25177.
Data set [2] deals with Mycobacterium tuberculosis. The class given is functional. As to conditions: H37Ra ATCC 25177. The source holds these as a separate data set.
Another data set concerns Vero. Description: Cytotoxicity against African green monkey Vero cells assessed as reduction in cell viability after 72 hrs by MTT assay. The class given is cell-based. As to conditions: Chlorocebus sabaeus. In general terms: Tetrazolium dyes change colour on reduction, which living cells bring about.
Data set [3] relates to Staphylococcus aureus. Description: Antibacterial activity against Staphylococcus aureus ATCC 6538. The class given is functional.
Data set [4] in a line: Aqueous solubility in water at room temperature sonicated for 30 mins followed by overnight incubation by HPLC analysis. It is filed as physicochemical.
Data set [5] deals with Mycobacterium tuberculosis. In words: microbe, parasite or virus in culture. Particulars: H37Ra ATCC 25177.
Description: Antitubercular activity against Mycobacterium tuberculosis H37Ra ATCC 25177
Data set [6] deals with Mycobacterium tuberculosis. It is filed as functional. As to conditions: H37Ra ATCC 25177. The source holds these as a separate data set.
Data set [7] concerns Staphylococcus aureus. In words: Antibacterial activity against Staphylococcus aureus ATCC 6538 at 20 uM relative to control. It is filed as functional.
The subject of data set [8] is Mycobacterium tuberculosis. Description: Antitubercular activity against Mycobacterium tuberculosis H37Rv assessed as inhibition of visible growth after 7 days by microbroth dilution method. It is filed as functional. As to conditions: 168 h. (In general: Dilution methods test growth across graded concentrations, often in twofold steps.)

In brackets after ≈: the same amount, converted by molar mass.

Broadly, the inhibition is the change of the read-out against control, counted positive when it falls. Broadly, the IC50 is the concentration that inhibits the measured activity by half. Take `O=C(Nc1nc(-c2cccc(Cl)c2)cs1)c1ccc([N+](=O)[O-])o1`: in [1], the inhibition at 10 µM is 99.2%. Besides, the inhibition at 1 µM in [2] is 40.5%. For the same molecule, the IC50 in the data set on Vero was determined as 43.7 µM.
For the molecule `CS(=O)(=O)Nc1cccc(-c2csc(NC(=O)c3ccc([N+](=O)[O-])o3)n2)c1`, the inhibition at 10 µM in data set [1] was found to be 82.1%. For the same molecule, the inhibition at 1 µM in data set [2] is -4.1%. Moreover, in the data set with Vero, the IC50 is less than 2.81 µM.
Usually MIC stands for the least concentration at which growth counts as inhibited. As usually defined, the solubility is how much of the substance goes into solution per volume. As for `CCOc1cccc(-c2csc(NC(=O)c3ccc([N+](=O)[O-])o3)n2)c1`, in [1], the inhibition at 10 µM is 99.4%. Also, the inhibition at 1 µM in data set [2] is 95.7%. In the data set on Staphylococcus aureus [3], this molecule registered an MIC of 4.49 µg/mL (≈ 12.5 µM). In the data set with Vero, the IC50 is more than 90 µM. In addition, in data set [4], the solubility at 0.5 h was found to be 0.34 µg/mL (≈ 0.946 µM). In [5], this molecule yielded an MIC90 of 0.9 µg/mL (≈ 2.5 µM).
In the case of `O=C(O)c1cn(C2CC2)c2cc(N3CCNCC3)c(F)cc2c1=O` [CIPROFLOXACIN], the inhibition at 10 µM in data set [1] turned out to be 99.7%. Further, the inhibition at 1 µM in data set [2] was determined as 99.6%. The molecule also gave an MIC against Staphylococcus aureus [3] of 0.26 µg/mL (≈ 0.785 µM). In addition, the MIC90 in [5] stood at 1.04 µg/mL (≈ 3.14 µM).
Turning to `COc1ccc(-c2csc(NC(=O)c3ccc([N+](=O)[O-])o3)n2)cc1`, in data set [1], the inhibition at 10 µM is 99.3%. In addition, the inhibition at 1 µM in data set [2] is -8.3%. Besides, the IC50 with Vero is 63 µM.
Taken in the same sequence, the figures for `O=C(Nc1nc(-c2c(F)cc(F)cc2F)cs1)c1ccc([N+](=O)[O-])o1` were -10.1%, -4.1% and 19.9 µM.
`COc1ccc(C(=O)Nc2cccc(-c3csc(NC(=O)c4ccc([N+](=O)[O-])o4)n3)c2)cc1`: in [2], the inhibition at 1 µM is -2.7%.
As to `COc1cccc(-c2csc(NC(=O)c3ccco3)n2)c1`, the inhibition at 10 µM in data set [1] is -0.9%. Moreover, in data set [2], the inhibition at 1 µM came to 1.9%. In addition, the IC50 in the data set with Vero was more than 90 µM.
Taken in the same sequence, the figures for `O=C(Nc1nc(-c2cccc(C(F)(F)F)c2)cs1)c1ccc([N+](=O)[O-])o1` were 98.6%, 67% and 23.9 µM.
For `COc1cccc(-c2csc(NC(=O)c3ccc([N+](=O)[O-])o3)n2)c1`, the inhibition at 10 µM in data set [1] is 100%. Moreover, the inhibition at 1 µM in data set [2] came to 68.8%. The IC50 in the data set on Vero was 58.7 µM. Moreover, the inhibition at 20 µM (in [6]; with Staphylococcus aureus [7]) was 99.5% throughout.
On to `COc1ccccc1-c1csc(NC(=O)c2ccc([N+](=O)[O-])o2)n1`, for which the inhibition at 10 µM in [1] was found to be 99.5%. Besides, in [2], the inhibition at 1 µM is -3%. Also, the 50% inhibitory concentration (IC50) with Vero was determined as 42 µM.
Take `O=C(Nc1cccc(-c2csc(NC(=O)c3ccc([N+](=O)[O-])o3)n2)c1)c1cccc(C(F)(F)F)c1`: the inhibition at 1 µM in data set [2] was 13.7%.
In the case of `O=C(Nc1nc(-c2cccc(Br)c2)cs1)c1ccc([N+](=O)[O-])o1`, the inhibition at 10 µM in [1] is 98.9%. Moreover, in data set [2], the inhibition at 1 µM came out at 70.4%. Moreover, the IC50 in the data set on Vero stood at 71 µM.
In the same order, the values of `COc1cccc(-c2csc(NC(=O)c3ccc([N+](=O)[O-])cc3)n2)c1` are -1.5%, -0.4% and more than 90 µM.
Take `CC(C)(C)OC(=O)Nc1cccc(-c2csc(NC(=O)c3ccc([N+](=O)[O-])o3)n2)c1`: the inhibition at 1 µM in [2] was 40%.
With `CC(=O)Nc1cccc(-c2csc(NC(=O)c3ccc([N+](=O)[O-])o3)n2)c1`, the inhibition at 10 µM in data set [1] turned out to be 99.4%. The inhibition at 1 µM in [2] came out at 40.6%. Besides, in the data set with Vero, the IC50 came to 57.6 µM.
For the molecule `O=C(Nc1cccc(-c2csc(NC(=O)c3ccc([N+](=O)[O-])o3)n2)c1)c1ccc(F)cc1`, the inhibition at 1 µM in [2] came to 39.8%.
Take `O=C(Nc1nc(-c2ccccc2)cs1)c1ccc([N+](=O)[O-])o1`: in data set [1], the inhibition at 10 µM is 99.5%. The inhibition at 1 µM in data set [2] is 37.2%. Further, the IC50 with Vero was determined as 41.7 µM.
Consider `O=C(Nc1nc(-c2cccc(NS(=O)(=O)Cc3ccccc3)c2)cs1)c1ccc([N+](=O)[O-])o1`, for which the inhibition at 1 µM in data set [2] stood at 93.9%. For the same molecule, the lowest concentration to inhibit growth in the data set with Staphylococcus aureus [3] (MIC) was 1.52 µg/mL (≈ 3.14 µM). For the same molecule, the IC50 in the data set on Vero was 59.3 µM. Besides, the solubility at 0.5 h in data set [4] stood at 0.48 µg/mL (≈ 0.991 µM). The molecule further yielded an MIC90 in data set [5] of 0.61 µg/mL (≈ 1.26 µM).
`O=C(Nc1nc(-c2cccc(NC(=O)C3CC3)c2)cs1)c1ccc([N+](=O)[O-])o1`: in data set [1], the inhibition at 10 µM came to 99.6%. In addition, the inhibition at 1 µM in data set [2] came to 99.3%. Besides, in the data set with Staphylococcus aureus [3], the lowest concentration to inhibit growth (MIC) was 2.49 µg/mL (≈ 6.25 µM). Besides, the IC50 in the data set on Vero was determined as 35.7 µM. The molecule further gave a solubility at 0.5 h in data set [4] of 0.47 µg/mL (≈ 1.18 µM). For the same molecule, the MIC90 in data set [5] worked out at 0.5 µg/mL (≈ 1.26 µM).
For the molecule `CC(C)Oc1cccc(-c2csc(NC(=O)c3ccc([N+](=O)[O-])o3)n2)c1`, the inhibition at 10 µM in data set [1] stood at 99.2%. For the same molecule, the inhibition at 1 µM in data set [2] came out at 97.8%. The minimal inhibitory concentration (MIC) against Staphylococcus aureus [3] was 4.67 µg/mL (≈ 12.5 µM). Moreover, the half-inhibitory concentration (IC50) in the data set on Vero was 69.5 µM. The concentration in solution in [4] (solubility at 0.5 h) was 0.27 µg/mL (≈ 0.723 µM). Moreover, in data set [5], the MIC90 is 0.47 µg/mL (≈ 1.26 µM).
Take `O=C(Nc1nc(-c2cccc(F)c2)cs1)c1ccc([N+](=O)[O-])o1`: the inhibition at 10 µM in data set [1] came out at 99.6%. In [2], the inhibition at 1 µM was determined as 95.7%. Further, the lowest concentration to inhibit growth in the data set on Staphylococcus aureus [3] (MIC) was 4.17 µg/mL (≈ 12.5 µM). The IC50 in the data set on Vero was 51.6 µM. In data set [4], this molecule showed a solubility at 0.5 h of 14.8 µg/mL (≈ 44.5 µM). This molecule also registered an MIC90 in data set [5] of 0.83 µg/mL (≈ 2.49 µM).
On to `Nc1cccc(-c2csc(NC(=O)c3ccc([N+](=O)[O-])o3)n2)c1`, for which the inhibition at 1 µM in data set [2] is -1.1%.
In the case of `O=[N+]([O-])c1ccc(C2=NOC(c3ccc(N4CCC(Oc5ccc(OC(F)(F)F)cc5)CC4)cc3)C2)o1` (stereo unspecified), in [8], the MIC is 0.024 µg/mL (≈ 0.0464 µM).
Take `O=C(Nc1nc(-c2cccc(NC(=O)C3CCCCC3)c2)cs1)c1ccc([N+](=O)[O-])o1`: in [1], the inhibition at 10 µM stood at 99.1%. For the same molecule, the inhibition at 1 µM in data set [2] came out at 98.9%. Also, 2.75 µg/mL (≈ 6.24 µM) was the least that counted as inhibitory in the data set on Staphylococcus aureus [3] (MIC). For the same molecule, the IC50 in the data set on Vero came out at 21.9 µM. In [4], this molecule displayed a solubility at 0.5 h of 3.46 µg/mL (≈ 7.86 µM). Besides, the MIC90 in data set [5] was determined as 0.28 µg/mL (≈ 0.636 µM).
Regarding `O=C(Nc1cccc(-c2csc(NC(=O)c3ccc([N+](=O)[O-])o3)n2)c1)c1ccccc1`, the inhibition at 10 µM in [1] came to 99.5%. The inhibition at 1 µM in data set [2] came out at 98.9%. This molecule registered an MIC against Staphylococcus aureus [3] of 1.36 µg/mL (≈ 3.13 µM). For the same molecule, the IC50 with Vero turned out to be 50.2 µM. Moreover, the concentration in solution in data set [4] (solubility at 0.5 h) was 1.27 µg/mL (≈ 2.92 µM). In addition, in [5], the MIC90 turned out to be 0.27 µg/mL (≈ 0.621 µM).
Consider `O=C(Nc1nc(-c2cccc(NC(=O)C3CCC3)c2)cs1)c1ccc([N+](=O)[O-])o1`, for which the inhibition at 1 µM in data set [2] turned out to be 1.9%.
Turning to `O=C(Nc1nc(-c2cccc(OC3CCCC3)c2)cs1)c1ccc([N+](=O)[O-])o1`, in [1], the inhibition at 10 µM is 99.3%. Further, the inhibition at 1 µM in data set [2] was determined as 97.9%. In addition, it took 4.99 µg/mL (≈ 12.5 µM) to inhibit growth with Staphylococcus aureus [3] (MIC). The IC50 with Vero stood at 81.1 µM. The solubility at 0.5 h in data set [4] was 0.027 µg/mL (≈ 0.0676 µM). The same molecule yielded an MIC90 in data set [5] of 1 µg/mL (≈ 2.5 µM).
On to `Cc1cc(C)c(-c2csc(NC(=O)c3ccc([N+](=O)[O-])o3)n2)c(C)c1`, for which the inhibition at 10 µM in [1] is -4.3%. The inhibition at 1 µM in data set [2] was 0.9%. Moreover, the IC50 in the data set on Vero was 30.4 µM.
As to `O=C(Nc1nc(-c2cccc(NC(=O)C3CCCC3)c2)cs1)c1ccc([N+](=O)[O-])o1`, the inhibition at 1 µM in [2] stood at 0.2%.
As to `COc1cccc(-c2csc(NC(=O)c3ccc(N)o3)n2)c1`, the inhibition at 1 µM in [2] was found to be 5.2%.

These data come from ChEMBL document CHEMBL3817779, “Identification of novel 2-aminothiazole conjugated nitrofuran as antitubercular and antibacterial agents” (Bioorg Med Chem Lett, 2016).
